Where two headings read alike, the source gives them in different places.
Assays:
[1] = system: cytochrome c; type: cell-based, mouse; conditions: Conc 20 μM; for cyt c (composite Z-score): normalized score vs mock-treated (DMSO) wells
[2] = system: nuOXPHOS transcripts; type: cell-based, mouse; conditions: Conc 20 μM; for nucOX (composite Z-score): normalized score vs mock-treated (DMSO) wells
[3] = system: mtOXPHOS transcripts; type: cell-based, mouse; conditions: Conc 20 μM; for mitoOX (composite Z-score): normalized score vs mock-treated (DMSO) wells
[4] = system: OXPHOS gene expression; type: cell-based, mouse; conditions: Conc 20 μM; for GE-HTS (composite Z-score): normalized score vs mock-treated (DMSO) wells
[5] = system: mitochondrial membrane potential; type: cell-based, mouse; conditions: Conc 20 μM; for ΔΨm (composite Z-score): normalized score vs mock-treated (DMSO) wells
[6] = system: cellular dehydrogenase activity; conditions: Conc 20 μM; for MTT (composite Z-score): normalized score vs mock-treated (DMSO) wells
[7] = system: C2C12 myotubes; conditions: Conc 20 μM; for Viability (composite Z-score): normalized score vs mock-treated (DMSO) wells
[8] = system: reactive oxygen species; type: cell-based, mouse; conditions: Conc 20 μM; for ROS (composite Z-score): normalized score vs mock-treated (DMSO) wells
[9] = normalized composite Z-score vs mock-treated (DMSO) wells
[10] = composite Z-score vs mock-treated (DMSO) wells

CC(C)c1ccc2c(c1)CC[C@H]1[C@](C)(C(N)=O)CCC[C@]21C [dehydroabietamide]
cyt c [1, 9]: 0.030 | nucOX [2, 9]: −0.731 | mitoOX [3, 9]: −0.877 | GE-HTS [4, 9]: −0.843 | ΔΨm [5, 9]: 1.642 | MTT [6, 9]: −0.187 | Viability [7, 9]: 0.807 | ROS [8, 9]: −0.130

COc1cc2c(cc1OC)-c1c(oc3c4c(ccc3c1=O)OC(C(C)C)C4)CO2 (stereo not drawn) [dehydrodihydrorotenone, reference compound]
cyt c [1, 10]: −0.211 | nucOX [2, 10]: −0.290 | mitoOX [3, 10]: 0.535 | GE-HTS [4, 10]: −0.001 | ΔΨm [5, 10]: 0.125 | MTT [6, 10]: −3.034 | Viability [7, 10]: −0.172 | ROS [8, 10]: 0.051

COc1ccc2c(c1)OCc1c-2oc2cc(OC)ccc12 [dehydrovariabilin]
cyt c ([1]; composite Z-score vs DMSO): 0.043 | nucOX ([2]; composite Z-score vs DMSO): 0.277 | mitoOX ([3]; composite Z-score vs DMSO): 0.416 | GE-HTS ([4]; composite Z-score vs DMSO): 0.367 | ΔΨm ([5]; composite Z-score vs DMSO): 0.951 | MTT ([6]; composite Z-score vs DMSO): −1.225 | Viability ([7]; composite Z-score vs DMSO): 0.309 | ROS ([8]; composite Z-score vs DMSO): 0.167

CCN1C[C@]2(C)CC[C@H](OC)[C@@]34C1[C@]1(OCO[C@@]15C[C@H](OC)[C@H]1C[C@]3(O)[C@@H]5[C@H]1OC)[C@@H](OC(C)=O)[C@H]24 [deltaline]
cyt c (composite Z-score) [1]: 0.271 | nucOX (composite Z-score) [2]: −0.062 | mitoOX (composite Z-score) [3]: −0.422 | GE-HTS (composite Z-score) [4]: −0.220 | ΔΨm (composite Z-score) [5]: −0.496 | MTT (composite Z-score) [6]: −1.231 | Viability (composite Z-score) [7]: −0.735 | ROS (composite Z-score) [8]: 1.654

CC(=O)O[C@@H]1CC2C(C)(C)CCC[C@]2(C)C2CC[C@]3(C)C(=CC(=O)O[C@H]3c3ccoc3)[C@@]21C (stereo partly drawn) [deoxodeoxydihydrogedunin]
cyt c [1, 10]: 0.837 | nucOX [2, 10]: −1.370 | mitoOX [3, 10]: −1.397 | GE-HTS [4, 10]: −1.452 | ΔΨm [5, 10]: 0.941 | MTT [6, 10]: −0.551 | Viability [7, 10]: 0.876 | ROS [8, 10]: 0.995

CC1(C)C2CC(=O)O[C@@]3(C)C4=CC(=O)O[C@@H](c5ccoc5)[C@]4(C)CCC3[C@@]2(C)C=C[C@H]1O (stereo partly drawn) [deoxyandirobin lactone]
cyt c [1, 10]: 0.893 | nucOX [2, 10]: −1.558 | mitoOX [3, 10]: −1.179 | GE-HTS [4, 10]: −1.510 | ΔΨm [5, 10]: −0.395 | MTT [6, 10]: −1.509 | Viability [7, 10]: 0.281 | ROS [8, 10]: 0.837

C=C1C2=CC(=O)O[C@@H](c3ccoc3)[C@]2(C)CC[C@@H]1[C@@]1(C)C=CC(=O)C(C)(C)[C@@H]1CC(=O)OC [deoxyandirobin]
cyt c [1, 10]: 1.196 | nucOX [2, 10]: 1.240 | mitoOX [3, 10]: 1.246 | GE-HTS [4, 10]: 1.352 | ΔΨm [5, 10]: 0.381 | MTT [6, 10]: 0.232 | Viability [7, 10]: 0.894 | ROS [8, 10]: −1.077

CC(=O)O[C@@H]1C[C@H]2C(C)(C)C(=O)C=C[C@]2(C)[C@H]2CC[C@]3(C)C(=CC(=O)O[C@H]3c3ccoc3)[C@@]21C [deoxygedunin]
cyt c ([1]; composite Z-score vs DMSO): 1.083 | nucOX ([2]; composite Z-score vs DMSO): −1.298 | mitoOX ([3]; composite Z-score vs DMSO): −0.808 | GE-HTS ([4]; composite Z-score vs DMSO): −1.229 | ΔΨm ([5]; composite Z-score vs DMSO): 1.327 | MTT ([6]; composite Z-score vs DMSO): −0.532 | Viability ([7]; composite Z-score vs DMSO): −0.326 | ROS ([8]; composite Z-score vs DMSO): −0.640

CC(=O)O[C@@H]1C=C[C@]2(C)C(C[C@@H](OC(C)=O)[C@]3(C)C4=CC(=O)O[C@H](c5ccoc5)[C@@]4(C)CCC23)C1(C)C (stereo partly drawn) [deoxygedunol acetate]
cyt c [1, 10]: 0.095 | nucOX [2, 10]: −0.850 | mitoOX [3, 10]: −0.639 | GE-HTS [4, 10]: −0.815 | ΔΨm [5, 10]: 0.137 | MTT [6, 10]: −1.930 | Viability [7, 10]: −0.767 | ROS [8, 10]: 1.251

Nc1nc2c(ncn2[C@H]2C[C@H](O)[C@@H](CO)O2)c(=O)[nH]1 [deoxyguanosine]
cyt c ([1]; composite Z-score vs DMSO): 0.695 | nucOX ([2]; composite Z-score vs DMSO): −0.090 | mitoOX ([3]; composite Z-score vs DMSO): 0.245 | GE-HTS ([4]; composite Z-score vs DMSO): −0.001 | ΔΨm ([5]; composite Z-score vs DMSO): −0.268 | MTT ([6]; composite Z-score vs DMSO): −0.703 | Viability ([7]; composite Z-score vs DMSO): −0.819 | ROS ([8]; composite Z-score vs DMSO): −0.110

CC(=O)O[C@H]1C[C@@H](OC(C)=O)C(C)(C)[C@@H]2C[C@@H](OC(C)=O)[C@@]3(C)C4=CC(=O)O[C@@H](c5ccoc5)[C@]4(C)CC[C@@H]3[C@@]12C [deoxykhivorin]
cyt c (composite Z-score) [1]: 0.073 | nucOX (composite Z-score) [2]: −0.917 | mitoOX (composite Z-score) [3]: −1.101 | GE-HTS (composite Z-score) [4]: −1.026 | ΔΨm (composite Z-score) [5]: 0.449 | MTT (composite Z-score) [6]: −0.494 | Viability (composite Z-score) [7]: 0.803 | ROS (composite Z-score) [8]: −0.038

COc1ccc2c(c1)OCC(Cc1ccc(OC)c(OC)c1)C2=O (stereo not drawn) [deoxysappanone B trimethyl ether]
cyt c (composite Z-score) [1]: 0.336 | nucOX (composite Z-score) [2]: 1.050 | mitoOX (composite Z-score) [3]: 0.613 | GE-HTS (composite Z-score) [4]: 0.993 | ΔΨm (composite Z-score) [5]: −0.194 | MTT (composite Z-score) [6]: −1.507 | Viability (composite Z-score) [7]: −0.068 | ROS (composite Z-score) [8]: 1.064
